In ChEMBL document CHEMBL4014279, “Synthesis of novel pyrazolo[3,4-b]quinolinyl acetamide analogs, their evaluation for antimicrobial and anticancer activities, validation by molecular modeling and CoMFA analysis” (Eur J Med Chem, 2017):
Calls of active or inactive are those of the source.

Columns and labels:
[1] = system: Staphylococcus aureus; experiment: Antibacterial activity against Staphylococcus aureus MTCC 96 after 24 hrs by well diffusion method; assay type: functional; conditions: MTCC 96, 24 h
[2] = system: Bacillus subtilis; experiment: Antibacterial activity against Bacillus subtilis MTCC 121 after 24 hrs by well diffusion method; assay type: functional; conditions: MTCC 121, 24 h
[3] = system: Staphylococcus aureus; experiment: Antibacterial activity against Staphylococcus aureus MLS16 MTCC 2940 after 24 hrs by well diffusion method; assay type: functional; conditions: MLS16 MTCC 2940, 24 h
[4] = system: Micrococcus luteus; experiment: Antibacterial activity against Micrococcus luteus MTCC 2470 after 24 hrs by well diffusion method; assay type: functional; conditions: MTCC 2470, 24 h
[5] = system: Raoultella planticola; experiment: Antibacterial activity against Klebsiella planticola MTCC 530 after 24 hrs by well diffusion method; assay type: functional; conditions: MTCC 530, 24 h
[6] = system: Escherichia coli; experiment: Antibacterial activity against Escherichia coli MTCC 739 after 24 hrs by well diffusion method; assay type: functional; conditions: MTCC 739, 24 h
[7] = system: Pseudomonas aeruginosa; experiment: Antibacterial activity against Pseudomonas aeruginosa MTCC 2453 after 24 hrs by well diffusion method; assay type: functional; conditions: MTCC 2453, 24 h
[8] = system: HeLa; experiment: Cytotoxicity against human HeLa cells after 24 hrs by MTT assay; assay type: functional, cell-based
[9] = system: COLO 205; experiment: Cytotoxicity against human COLO205 cells after 24 hrs by MTT assay; assay type: functional, cell-based; conditions: COLO 205, 24 h
[10] = system: HepG2; experiment: Cytotoxicity against human HepG2 cells at >100 uM after 24 hrs by MTT assay; assay type: functional, cell-based
[11] = system: A549; experiment: Cytotoxicity against human A549 cells at >100 uM after 24 hrs by MTT assay; assay type: functional, cell-based
[12] = system: HeLa; experiment: Cytotoxicity against human HeLa cells at >100 uM after 24 hrs by MTT assay; assay type: functional, cell-based
[13] = system: COLO 205; experiment: Cytotoxicity against human COLO205 cells at >100 uM after 24 hrs by MTT assay; assay type: functional, cell-based
[14] = system: Candida albicans; experiment: Antifungal activity against Candida albicans MTCC 183 after 24 hrs by well diffusion method; assay type: functional; conditions: MTCC 183, 24 h
[15] = system: Candida albicans; experiment: Antifungal activity against Candida albicans MTCC 227 after 24 hrs by well diffusion method; assay type: functional; conditions: MTCC 227, 24 h
[16] = system: Candida albicans; experiment: Antifungal activity against Candida albicans MTCC 854 after 24 hrs by well diffusion method; assay type: functional; conditions: MTCC 854, 24 h
[17] = system: Candida albicans; experiment: Antifungal activity against Candida albicans MTCC 1637 after 24 hrs by well diffusion method; assay type: functional; conditions: MTCC 1637, 24 h
[18] = system: Candida albicans; experiment: Antifungal activity against Candida albicans MTCC 3017 after 24 hrs by well diffusion method; assay type: functional; conditions: MTCC 3017, 24 h
[19] = system: Candida albicans; experiment: Antifungal activity against Candida albicans MTCC 3018 after 24 hrs by well diffusion method; assay type: functional; conditions: MTCC 3018, 24 h
[20] = system: Candida albicans; experiment: Antifungal activity against Candida albicans MTCC 3958 after 24 hrs by well diffusion method; assay type: functional; conditions: MTCC 3958, 24 h
[21] = system: Candida albicans; experiment: Antifungal activity against Candida albicans MTCC 4748 after 24 hrs by well diffusion method; assay type: functional; conditions: MTCC 4748, 24 h
[22] = system: Candida albicans; experiment: Antifungal activity against Candida albicans MTCC 7315 after 24 hrs by well diffusion method; assay type: functional; conditions: MTCC 7315, 24 h
[23] = system: Candida parapsilosis; experiment: Antifungal activity against Candida parapsilosis MTCC 1744 after 24 hrs by well diffusion method; assay type: functional; conditions: MTCC 1744, 24 h
[24] = system: [Candida] aaseri; experiment: Antifungal activity against Candida aaseri MTCC 1962 after 24 hrs by well diffusion method; assay type: functional; conditions: Yamadazyma aaseri, MTCC 1962, 24 h
[25] = system: Nakaseomyces glabratus; experiment: Antifungal activity against Candida glabrata MTCC 3019 after 24 hrs by well diffusion method; assay type: functional; conditions: MTCC 3019, 24 h
[26] = system: Pichia kudriavzevii; experiment: Antifungal activity against Candida krusei MTCC 3020 after 24 hrs by well diffusion method; assay type: functional; conditions: MTCC 3020, 24 h
[27] = system: Pichia sporocuriosa; experiment: Antifungal activity against Issatchenkia hanoiensis MTCC 4755 after 24 hrs by well diffusion method; assay type: functional; conditions: MTCC 4755, 24 h
[28] = system: Candida albicans; experiment: Antibiofilm activity against Candida albicans MTCC 4748 after 24 hrs by crystal violet staining based method; assay type: functional; conditions: MTCC 4748, 24 h
[29] = system: HepG2; experiment: Cytotoxicity against human HepG2 cells after 24 hrs by MTT assay; assay type: functional, cell-based; conditions: HepG2, 24 h
[30] = system: A549; experiment: Cytotoxicity against human A549 cells after 24 hrs by MTT assay; assay type: functional, cell-based; conditions: A549, 24 h

Cc1c2ccccc2nc2c1c(C(F)(F)F)nn2CC(=O)Nc1ccc([N+](=O)[O-])cc1
36.2 µM: IC50 [9]
38.9 µM: IC50 [8]
7.8 to 125 µg/mL: MIC [1] | MIC [2] | MIC [3] | MIC [4] | MIC [5] | MIC [6] | MIC [7]
inactive: Activity [10] | Activity [11]

O=C(Cn1nc(C(F)(F)F)c2c(-c3ccccc3)c3ccccc3nc21)NC1CC1
inactive: Activity [12] | Activity [10] | Activity [11] | Activity [13]
7.8 to 125 µg/mL: MIC [1] | MIC [2] | MIC [3] | MIC [4] | MIC [5] | MIC [6] | MIC [7]

Cc1c2ccccc2nc2c1c(C(F)(F)F)nn2CC(=O)NC1CCCC1
7.8 to 125 µg/mL: MIC [1] | MIC [2] | MIC [3] | MIC [4] | MIC [5] | MIC [6] | MIC [7]
inactive: Activity [12] | Activity [10] | Activity [11] | Activity [13]

Clc1ccc(COC(Cn2ccnc2)c2ccc(Cl)cc2Cl)c(Cl)c1 (stereo not given) [MICONAZOLE]
2.6 µM: IC50 [28]
7.8 µg/mL: MIC [14] | MIC [15] | MIC [16] | MIC [17] | MIC [18] | MIC [19] | MIC [20] | MIC [21] | MIC [22] | MIC [23] | MIC [24] | MIC [25] | MIC [26] | MIC [27]

Cc1c2ccccc2nc2c1c(C(F)(F)F)nn2CC(=O)N1CCOCC1
7.8 to 125 µg/mL: MIC [1] | MIC [2] | MIC [3] | MIC [4] | MIC [5] | MIC [6] | MIC [7]
inactive: Activity [12] | Activity [10] | Activity [11] | Activity [13]

O=C(Cn1nc(C(F)(F)F)c2c(-c3ccccc3)c3ccccc3nc21)N1CCOCC1
inactive: Activity [12] | Activity [10] | Activity [11] | Activity [13]
> 125 µg/mL: MIC [7]
62.5 µg/mL: MIC [1] | MIC [6] | MIC [15] | MIC [16] | MIC [17] | MIC [24]
15.6 µg/mL: MIC [4] | MIC [5] | MIC [22] | MIC [27]
31.2 µg/mL: MIC [2] | MIC [3] | MIC [14] | MIC [18] | MIC [19] | MIC [20] | MIC [21] | MIC [23] | MIC [25] | MIC [26]

COc1ccc(NC(=O)Cn2nc(C(F)(F)F)c3c(C)c4ccccc4nc32)cc1
7.8 to 125 µg/mL: MIC [1] | MIC [2] | MIC [3] | MIC [4] | MIC [5] | MIC [6] | MIC [7]
inactive: Activity [12] | Activity [10] | Activity [11] | Activity [13]

COc1ccc(NC(=O)Cn2nc(C(F)(F)F)c3c(-c4ccccc4)c4ccccc4nc32)cc1
18.2 µM: IC50 [30]
62.5 µg/mL: MIC [2] | MIC [3] | MIC [6] | MIC [14] | MIC [17] | MIC [19] | MIC [24] | MIC [26]
22.2 µM: IC50 [8]
20.4 µM: IC50 [29]
> 125 µg/mL: MIC [7]
31.2 µg/mL: MIC [1] | MIC [15] | MIC [16] | MIC [18] | MIC [20] | MIC [22] | MIC [23] | MIC [25] | MIC [27]
19.6 µM: IC50 [9]
62.6 µg/mL: MIC [21]
7.8 µg/mL: MIC [4] | MIC [5]

O=C(Cn1nc(C(F)(F)F)c2c(-c3ccccc3)c3ccccc3nc21)N1CCN(CCO)CC1
7.8 to 125 µg/mL: MIC [1] | MIC [2] | MIC [3] | MIC [4] | MIC [5] | MIC [6] | MIC [7]
inactive: Activity [12] | Activity [10] | Activity [11] | Activity [13]

Cc1c2ccccc2nc2c1c(C(F)(F)F)nn2CC(=O)N1CCCCC1
25.4 µM: IC50 [9]
7.8 to 125 µg/mL: MIC [1] | MIC [2] | MIC [3] | MIC [4] | MIC [5] | MIC [6] | MIC [7]
32.5 µM: IC50 [30]
33.9 µM: IC50 [8]
36.6 µM: IC50 [29]

Cc1nn(CC(=O)N2CCCCC2)c2nc3ccccc3c(C)c12
17 µM: IC50 [8]
7.8 to 125 µg/mL: MIC [1] | MIC [2] | MIC [3] | MIC [4] | MIC [5] | MIC [6] | MIC [7]
20.5 µM: IC50 [30]
11.9 µM: IC50 [9]
15.5 µM: IC50 [29]

O=C(Cn1nc(C(F)(F)F)c2c(-c3ccccc3)c3ccccc3nc21)N1CCCC1
33.3 µM: IC50 [29]
29.6 µM: IC50 [8]
22.5 µM: IC50 [30]
25.8 µM: IC50 [9]
7.8 to 125 µg/mL: MIC [1] | MIC [2] | MIC [3] | MIC [4] | MIC [5] | MIC [6] | MIC [7]

Cc1nn(CC(=O)Nc2ccc([N+](=O)[O-])cc2)c2nc3ccccc3c(C)c12
17.2 µM: IC50 [29]
20.1 µM: IC50 [9]
15.9 µM: IC50 [30]
18.5 µM: IC50 [8]
7.8 to 125 µg/mL: MIC [1] | MIC [2] | MIC [3] | MIC [4] | MIC [5] | MIC [6] | MIC [7]
